Where a name gives a salt, the structure may show the parent alone. Read-outs that look alike come from different tables or passages of the source.

Holding throughout (format): biochemical
For one assay, the target named is T1, recombinant PRL-2 (Homo sapiens, UniProt Q12974).
T1 construct: 6xHis (N, cleaved yes); made in house; host or cells: E. coli One Shot BL21 Star
T1 sequence (Q12974 1-167): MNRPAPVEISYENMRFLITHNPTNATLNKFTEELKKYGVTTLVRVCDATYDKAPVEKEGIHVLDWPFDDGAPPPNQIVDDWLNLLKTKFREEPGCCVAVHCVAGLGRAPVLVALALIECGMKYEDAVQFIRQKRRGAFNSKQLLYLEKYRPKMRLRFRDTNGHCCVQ
Description: In vitro phosphatase assay (DiFMUP hydrolysis), PRL-2.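 Note: PRL-2 activity read as DiFMUP hydrolysis after 20 min at room temperature with drug, enzyme first pre-reduced at 4 °C for 20 min.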

Another assay deals with T2, recombinant PRL-1 (Homo sapiens, UniProt Q93096).
T2 construct: 6xHis (N, cleaved yes); made in house; host or cells: E. coli One Shot BL21 Star
T2 sequence (Q93096 1-173): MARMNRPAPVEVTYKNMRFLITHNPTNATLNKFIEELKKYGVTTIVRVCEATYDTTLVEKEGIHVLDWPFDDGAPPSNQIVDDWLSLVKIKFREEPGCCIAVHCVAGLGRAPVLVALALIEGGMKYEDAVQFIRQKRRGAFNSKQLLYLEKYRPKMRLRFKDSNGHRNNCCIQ
Description: In vitro phosphatase assay (DiFMUP hydrolysis), PRL-1. Note: test concentration or dose not given here.

In another assay the target is T3, recombinant PRL-3 (Homo sapiens, UniProt O75365).
T3 construct: 6xHis (N, cleaved yes); made in house; host or cells: E. coli One Shot BL21 Star
Nature of the assay: In vitro phosphatase assay (DiFMUP hydrolysis), PRL-3. Note: test concentration or dose not given here.

Setting [1] is: FDA-approved drug screen, compared to DMSO.

T3 sequence (O75365 whole entry): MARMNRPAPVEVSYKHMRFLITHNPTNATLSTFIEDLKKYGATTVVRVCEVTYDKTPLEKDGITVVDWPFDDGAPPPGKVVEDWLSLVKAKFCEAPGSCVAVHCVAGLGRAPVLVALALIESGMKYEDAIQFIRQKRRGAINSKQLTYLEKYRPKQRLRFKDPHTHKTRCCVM

As to `CC(=O)Oc1cccc2c1C(=O)c1c(OC(C)=O)cc(C(=O)O)cc1C2=O` [Diacerein], at recombinant PRL-2 (setting [1]), the “% Phosphatase Activity (compared to DMSO) PRL-2” value is on record as 51%. The “% Phosphatase Activity (compared to DMSO) PRL-1” value on recombinant PRL-1 (setting [1]) worked out at 32%. On recombinant PRL-3 (setting [1]), the “% Phosphatase Activity (compared to DMSO) PRL-3” value is 31%.
The corresponding values for `CC1=NS(=O)(=O)c2cc(Cl)ccc2N1` [Diazoxide] are 94%, 99% and 89%.
For `CCCCOc1cc(C(=O)NCCN(CC)CC)c2ccccc2n1` [Dibucaine HCl] the same measures were 108%, 110% and 101%.
Turning to `N#CC(c1ccc(Cl)cc1)c1c(Cl)cc(-n2ncc(=O)[nH]c2=O)cc1Cl` (stereo not drawn) [Diclazuril], the “% Phosphatase Activity (compared to DMSO) PRL-2” value on recombinant PRL-2 (setting [1]) is listed as 112%. The “% Phosphatase Activity (compared to DMSO) PRL-1” value at recombinant PRL-1 (setting [1]) is recorded as 79%. Besides, the “% Phosphatase Activity (compared to DMSO) PRL-3” value at recombinant PRL-3 (setting [1]) is recorded as 80%.
The corresponding values for `O=C(O)Cc1ccccc1Nc1c(Cl)cccc1Cl` [Diclofenac Diethylamine] are 140%, 119% and 97%.
The corresponding values for `O=C([O-])Cc1ccccc1Nc1c(Cl)cccc1Cl.[K+]` [Diclofenac Potassium] are 132%, 115% and 99%.
As to `O=C(O)Cc1ccccc1Nc1c(Cl)cccc1Cl` [Diclofenac Sodium], the “% Phosphatase Activity (compared to DMSO) PRL-2” value on recombinant PRL-2 (setting [1]) is 115%. Besides, the “% Phosphatase Activity (compared to DMSO) PRL-1” value on recombinant PRL-1 (setting [1]) came to 100%. Moreover, the “% Phosphatase Activity (compared to DMSO) PRL-3” value at recombinant PRL-3 (setting [1]) came to 92%.
The corresponding values for `Cc1onc(-c2c(Cl)cccc2Cl)c1C(=O)N[C@@H]1C(=O)N2[C@@H]1SC(C)(C)[C@@H]2C(=O)O` [Dicloxacillin Sodium] are 121%, 106% and 85%.
For `O=c1[nH]cnc2c1ncn2[C@H]1CC[C@@H](CO)O1` [Didanosine] the same measures were 114%, 95% and 85%.
The corresponding values for `C[C@]12CCC3=C4CCC(=O)C=C4CC[C@H]3[C@@H]1CC[C@@]2(O)CC#N` [Dienogest] are 78%, 100% and 72%.
For `CCN(CC)C(=O)N1CCN(C)CC1.O=C(O)CC(O)(CC(=O)O)C(=O)O` [Diethylcarbamazine (citrate)], at recombinant PRL-2 (setting [1]), the “% Phosphatase Activity (compared to DMSO) PRL-2” value is on record as 101%. In addition, the “% Phosphatase Activity (compared to DMSO) PRL-1” value at recombinant PRL-1 (setting [1]) worked out at 92%. The “% Phosphatase Activity (compared to DMSO) PRL-3” value at recombinant PRL-3 (setting [1]) was determined as 90%.
With `CC/C(=C(/CC)c1ccc(O)cc1)c1ccc(O)cc1` [Diethylstilbestrol], the “% Phosphatase Activity (compared to DMSO) PRL-2” value at recombinant PRL-2 (setting [1]) turned out to be 97%. In addition, the “% Phosphatase Activity (compared to DMSO) PRL-1” value at recombinant PRL-1 (setting [1]) amounted to 86%. In addition, on recombinant PRL-3 (setting [1]), the “% Phosphatase Activity (compared to DMSO) PRL-3” value was found to be 92%.
For `CN1CCN(c2cc3c(cc2F)c(=O)c(C(=O)O)cn3-c2ccc(F)cc2)CC1` [Difloxacin HCl] the same measures were 102%, 99% and 114%.
Turning to `O=C(O)c1cc(-c2ccc(F)cc2F)ccc1O` [Diflunisal], the “% Phosphatase Activity (compared to DMSO) PRL-2” value on recombinant PRL-2 (setting [1]) was found to be 87%. In addition, the “% Phosphatase Activity (compared to DMSO) PRL-1” value on recombinant PRL-1 (setting [1]) was 91%. Further, on recombinant PRL-3 (setting [1]), the “% Phosphatase Activity (compared to DMSO) PRL-3” value was 85%.
With `CCCC(=O)O[C@]1(C(=O)COC(C)=O)CC[C@H]2[C@@H]3C[C@H](F)C4=CC(=O)C=C[C@]4(C)[C@@]3(F)[C@@H](O)C[C@@]21C` [Difluprednate], the “% Phosphatase Activity (compared to DMSO) PRL-2” value at recombinant PRL-2 (setting [1]) worked out at 76%. Moreover, at recombinant PRL-1 (setting [1]), the “% Phosphatase Activity (compared to DMSO) PRL-1” value is on record as 82%. The “% Phosphatase Activity (compared to DMSO) PRL-3” value at recombinant PRL-3 (setting [1]) was 67%.
For `C[C@H]1O[C@@H](O[C@H]2[C@@H](O)C[C@H](O[C@H]3[C@@H](O)C[C@H](O[C@H]4CC[C@@]5(C)[C@H](CC[C@@H]6[C@@H]5C[C@@H](O)[C@]5(C)[C@@H](C7=CC(=O)OC7)CC[C@]65O)C4)O[C@@H]3C)O[C@@H]2C)C[C@H](O)[C@@H]1O` [Digoxin] the same measures were 95%, 102% and 76%.
On to `CN[C@@H]1[C@H](O[C@H]2[C@H](O[C@H]3[C@H](O)[C@@H](O)[C@H](NC(=N)N)[C@@H](O)[C@@H]3NC(=N)N)O[C@@H](C)[C@]2(O)CO)O[C@@H](CO)[C@H](O)[C@H]1O` [Dihydrostreptomycin sulfate], for which the “% Phosphatase Activity (compared to DMSO) PRL-2” value at recombinant PRL-2 (setting [1]) amounted to 90%. Besides, the “% Phosphatase Activity (compared to DMSO) PRL-1” value at recombinant PRL-1 (setting [1]) was determined as 89%. The “% Phosphatase Activity (compared to DMSO) PRL-3” value at recombinant PRL-3 (setting [1]) came to 110%.
The corresponding values for `Oc1c(I)cc(I)c2cccnc12` [Diiodohydroxyquinoline] are 108%, 89% and 81%.
As for `COc1ccc([C@@H]2Sc3ccccc3N(CCN(C)C)C(=O)[C@@H]2OC(C)=O)cc1` [Diltiazem HCl], on recombinant PRL-2 (setting [1]), the “% Phosphatase Activity (compared to DMSO) PRL-2” value is listed as 111%. Further, on recombinant PRL-1 (setting [1]), the “% Phosphatase Activity (compared to DMSO) PRL-1” value was 94%. In addition, the “% Phosphatase Activity (compared to DMSO) PRL-3” value at recombinant PRL-3 (setting [1]) was determined as 124%.
Turning to `O=S(=O)([O-])CCSSCCS(=O)(=O)[O-].[Na+].[Na+]` [Dimesna], the “% Phosphatase Activity (compared to DMSO) PRL-2” value on recombinant PRL-2 (setting [1]) is given as 99%. Further, at recombinant PRL-1 (setting [1]), the “% Phosphatase Activity (compared to DMSO) PRL-1” value came out at 99%. The “% Phosphatase Activity (compared to DMSO) PRL-3” value at recombinant PRL-3 (setting [1]) is on record as 79%.
For the compound `COC(=O)/C=C/C(=O)OC` [Dimethyl Fumarate], the “% Phosphatase Activity (compared to DMSO) PRL-2” value on recombinant PRL-2 (setting [1]) turned out to be 115%. Besides, the “% Phosphatase Activity (compared to DMSO) PRL-1” value at recombinant PRL-1 (setting [1]) was found to be 106%. Also, the “% Phosphatase Activity (compared to DMSO) PRL-3” value at recombinant PRL-3 (setting [1]) is listed as 83%.
With `CCc1cnn2c(NCc3ccc[n+]([O-])c3)cc(N3CCCC[C@H]3CCO)nc12` [Dinaciclib (SCH727965)], the “% Phosphatase Activity (compared to DMSO) PRL-2” value at recombinant PRL-2 is 89%. Moreover, the “% Phosphatase Activity (compared to DMSO) PRL-1” value on recombinant PRL-1 worked out at 87%. Besides, at recombinant PRL-3, the “% Phosphatase Activity (compared to DMSO) PRL-3” value came out at 87%.
Consider `Cc1c(C(N)=O)cc([N+](=O)[O-])cc1[N+](=O)[O-]` [Dinitolmide], for which the “% Phosphatase Activity (compared to DMSO) PRL-2” value on recombinant PRL-2 (setting [1]) was 117%. Further, the “% Phosphatase Activity (compared to DMSO) PRL-1” value at recombinant PRL-1 (setting [1]) is recorded as 107%. In addition, the “% Phosphatase Activity (compared to DMSO) PRL-3” value at recombinant PRL-3 (setting [1]) is 90%.
For `O=C(Nc1ccccc1)OCC(CN1CCCCC1)OC(=O)Nc1ccccc1` (stereo not drawn) [Diperodon HCl] the same measures were 98%, 99% and 103%.
Turning to `CN(C)CCOC(c1ccccc1)c1ccccc1` [Diphenhydramine HCl], the “% Phosphatase Activity (compared to DMSO) PRL-2” value at recombinant PRL-2 (setting [1]) came to 108%. Moreover, the “% Phosphatase Activity (compared to DMSO) PRL-1” value on recombinant PRL-1 (setting [1]) is given as 113%. Besides, the “% Phosphatase Activity (compared to DMSO) PRL-3” value on recombinant PRL-3 (setting [1]) was 111%.
For the compound `OC(CCCN1CCCCC1)(c1ccccc1)c1ccccc1` [Diphenidol HCl], on recombinant PRL-2 (setting [1]), the “% Phosphatase Activity (compared to DMSO) PRL-2” value was 115%. Also, at recombinant PRL-1 (setting [1]), the “% Phosphatase Activity (compared to DMSO) PRL-1” value was found to be 102%. The “% Phosphatase Activity (compared to DMSO) PRL-3” value on recombinant PRL-3 (setting [1]) was determined as 89%.
For `CN1CCC(OC(c2ccccc2)c2ccccc2)CC1` [Diphenylpyraline HCl] the same measures were 100%, 97% and 98%.
For `OCCN(CCO)c1nc(N2CCCCC2)c2nc(N(CCO)CCO)nc(N3CCCCC3)c2n1` [Dipyridamole] the same measures were 258%, 182% and 219%.
As for `CC[C@H]1OC(=O)[C@H](C)[C@@H](O[C@H]2C[C@@](C)(OC)[C@@H](O)[C@H](C)O2)[C@H](C)[C@@H](O[C@@H]2O[C@H](C)C[C@H](N(C)C)[C@H]2O)[C@](C)(O)C[C@@H](C)[C@@H]2N[C@@H](COCCOC)O[C@H]([C@H]2C)[C@]1(C)O` [Dirithromycin], at recombinant PRL-2 (setting [1]), the “% Phosphatase Activity (compared to DMSO) PRL-2” value is 94%. Further, at recombinant PRL-1 (setting [1]), the “% Phosphatase Activity (compared to DMSO) PRL-1” value turned out to be 90%. In addition, at recombinant PRL-3 (setting [1]), the “% Phosphatase Activity (compared to DMSO) PRL-3” value is reported as 74%.
With `O=C([O-])c1cc(=O)c2c(OCC(O)COc3cccc4oc(C(=O)[O-])cc(=O)c34)cccc2o1.[Na+].[Na+]` [Disodium Cromoglycate], the “% Phosphatase Activity (compared to DMSO) PRL-2” value at recombinant PRL-2 (setting [1]) was determined as 78%. The “% Phosphatase Activity (compared to DMSO) PRL-1” value at recombinant PRL-1 (setting [1]) came to 93%. For the same compound, at recombinant PRL-3 (setting [1]), the “% Phosphatase Activity (compared to DMSO) PRL-3” value worked out at 93%.
`CC(C)N(CCC(C(N)=O)(c1ccccc1)c1ccccn1)C(C)C` (stereo not drawn) [Disopyramide Phosphate]: the “% Phosphatase Activity (compared to DMSO) PRL-2” value on recombinant PRL-2 (setting [1]) was determined as 107%. For the same compound, the “% Phosphatase Activity (compared to DMSO) PRL-1” value at recombinant PRL-1 (setting [1]) stood at 94%. In addition, at recombinant PRL-3 (setting [1]), the “% Phosphatase Activity (compared to DMSO) PRL-3” value is on record as 93%.
The corresponding values for `CCN(CC)C(=S)SSC(=S)N(CC)CC` [Disulfiram] are 100%, 103% and 78%.
For `CCCC(CCC)C(=O)O` [Divalproex Sodium] the same measures were 94%, 105% and 77%.

(Values after PMC8119466, “A screen of FDA-approved drugs identifies inhibitors of protein tyrosine phosphatase 4A3 (PTP4A3 or PRL-3)” (Scientific Reports, 2021).)
